Measurements from patent publication US20140196172A1, “Organelle Targeting Nanocarriers” (Her Majesty the Queen in Right of Canada, as Repre sented …, priority 2011, published 2014).

Legend:
F1112 cells = assay: F1112 cell transformation with gfp reporter, photometric cell imaging; assay type: cell-based, bovine; details: for Fluorescence observed in cells upon transfection / Expression of GFP in mitochondria: F1112, mitochondrial gfp-reporter construct; for Expression of GFP in mitochondria: photometric cell imaging; for gfp expression, Photometric Cell Imaging (average counts/sec) F1112: pWMaadA16GFP 5 μg + peptide 500 μg, measured at 40 h
Protocol: (§1) Uptake of labeled peptides by cells is quantified using a photometric detector/cell-imaging system (PTI). An excitation scan is run to determine if uptake has occurred as indicated by peaks at the appropriate wavelengths and if the amount changes in a dose-dependent manner compared to unlabeled cells. A time-based scan is then performed at the optimal excitation and emission wavelength to quantify total uptake, using about 20 cells/view/replicate.
(§2) The ten non-labelled oTPs listed in Tables 3 and 4 were tested for their capability to deliver biologically active DNA to chloroplasts or mitochondria using an oTP-GFP reporter construct transfection assay. oTPs are mixed with a double stranded (ds) DNA construct encoding Aequorea victoria green fluorescent protein (GFP) to form a complex. The plasmid-peptide nanocomplexes formed are incubated with triticale mesophyll protoplasts, microspores, or MDCK, Caco-2, F1112 or MG cells. Detection of a fluorescent signal by confocal microscopy and/or photometric cell imaging would indicate that the dsDNA had been transported into organelles and that transient expression of GFP had occurred. In addition, gene expression can be measured using quantitative real-time PCR to determine gfp mRNA abundance.
(§3) Wheat mitochondrial aadA16GFP reporter plasmid (pWMaadA16GFP, FIG. 11) is a 4587 base pair wheat specific mitochondrial transformation vector, which targets insertions into the fourth repeat region between the trnfM and rm18 gene cluster which is repeated three times in the Triticum aestivum mitochondrial genome. The insertion site is in the Triticum aestivum mitochondrial genome at nucleotides 300805-300878 and 300880-302834 (GenBank accession No. AP008982.1). A multiple cloning site is introduced following the tmfM target insertion sequence. The selection marker gene is an organelle codon specific aad-gfp fusion gene, which facilitates a dual selection method of spectinomycin resistance through an aadA derivative and visual detection by GFP fluorescence (GenBank accession No. ABX39486; Khan and Maliga, Nat. Biotechnol. (1999 September) 17(9): 910-5). The selection marker gene is driven by the Triticum aestivum mitochondrial atpA gene promoter (GenBank accession No. X54387.1). The aad-gfp fusion gene is terminated with the TpsbA terminator sequence derived from the Triticum aestivum mitochondrial genome at nucleotides 62871-62565 (GenBank accession No. AP008982.1).
(§4) The dsDNA construct (pWMaadA16GFP. 100 μl of the stock solution, 5 μg) is combined with mTP1 (SEQ ID NO: 1) or mTP4 (SEQ ID NO: 4) (100 μl of the unlabelled stock, 500 μg) and incubated for 15 minutes at 37° C. An 800 μl aliquot of DMEM is added to the mixture and 100 μl of this mixture is then added to each cell monolayer (prepared as described in Example 2) that has 500 μl complete media. The cells are incubated at 37° C. in a humidified atmosphere containing 5% CO2 for 24 h to 72 hr. The uptake and expression of the GFP reporter is measured at 40 h using a photometric detector/cell-imaging system (PTI) as described in Example 2. The cells are also imaged using confocal microscopy as described in Example 2 using MitoTracker® Orange staining to visualize mitochondria.

MG cells = assay: MG cell transformation with gfp reporter, photometric cell imaging; assay type: cell-based, bovine; details: for Fluorescence observed in cells upon transfection / Expression of GFP in mitochondria: MG, mitochondrial gfp-reporter construct; for Expression of GFP in mitochondria: photometric cell imaging; for gfp expression, Photometric Cell Imaging (average counts/sec) MG: pWMaadA16GFP 5 μg + peptide 500 μg, measured at 40 h
Protocol: as §1, §2, §3, §4

Caco-2 cells = assay: Caco-2 cell transformation with gfp reporter, photometric cell imaging; assay type: cell-based, human; details: for Fluorescence observed in cells upon transfection / Expression of GFP in mitochondria: Caco-2, mitochondrial gfp-reporter construct; for Expression of GFP in mitochondria: photometric cell imaging; for gfp expression, Photometric Cell Imaging (average counts/sec) Caco-2: pWMaadA16GFP 5 μg + peptide 500 μg, measured at 40 h
Protocol: as §1, §2, §3, §4

[1] = system: mitochondria of triticale mesophyll protoplasts; assay: Protoplast transformation with gfp reporter, confocal microscopy; assay type: cell-based; details: pWMaadA16GFP plasmid, 24 h
Protocol: as §2
Wheat mitochondrial aadA16GFP reporter plasmid (pWMaadA16GFP, FIG. 11) is a 4587 base pair wheat specific mitochondrial transformation vector, which targets insertions into the fourth repeat region between the trnfM and rm18 gene cluster which is repeated three times in the Triticum aestivum mitochondrial genome. The insertion site is in the Triticum aestivum mitochondrial genome at nucleotides 300805-300878 and 300880-302834 (GenBank accession No. AP008982.1). A multiple cloning site is introduced following the tmfM target insertion sequence. […]

| Sequence | Fluorescence observed in cells upon transfection (F1112 cells) | Expression of GFP in mitochondria (F1112 cells) | gfp expression, Photometric Cell Imaging (average counts/sec) F1112 (F1112 cells) | Fluorescence observed in cells upon transfection (MG cells) | Expression of GFP in mitochondria (MG cells) | gfp expression, Photometric Cell Imaging (average counts/sec) MG (MG cells) | Fluorescence observed in cells upon transfection (Caco-2 cells) | Expression of GFP in mitochondria (Caco-2 cells) | gfp expression, Photometric Cell Imaging (average counts/sec) Caco-2 (Caco-2 cells) | Transfection of mitochondria (GFP fluorescence) [1] |
| --- | --- | --- | --- | --- | --- | --- | --- | --- | --- | --- |
| MFSYLPRYPLRAASARALVRATRPSYRSALLRYQ (listed as Triticum aestivum) [mTP1] | fluorescence was observed in all cells | detected | 1900000 counts/sec | fluorescence was observed in all cells | detected | 1900000 counts/sec | fluorescence was observed in all cells | detected | 2000000 counts/sec |  |
| MAAWMRSLFSPLKKLWIRMH (Zea mays) [mTP2] |  |  |  |  |  |  |  |  |  | can mediate the transfection of mitochondria |
| MWWRRSRTNSLRYT (listed as Arabidopsis thaliana) [mTP4] | no fluorescence was observed | detected | 650000 counts/sec | no fluorescence was observed | detected | 650000 counts/sec | no fluorescence was observed | detected | 570000 counts/sec | can mediate the transfection of mitochondria |
